Data reported in a melting point compilation (Tetko et al.; mined from patent text by program, amines drawn as free bases though some values may be those of a salt).

melting point [°C] | Structure (SMILES)
201 to 203 | COc1ccc(-c2cc3ccccc3[nH]2)cc1NC(=S)Nc1ccc(C(=O)O)cc1
230 | CC1CN(c2ccc(-c3[nH]nc4c3C(=O)c3c(NC(=O)NN5CCOCC5)cccc3-4)cc2)CCN1 (centres undefined)
93 to 99 | COc1cc(N2CCCN(C[C@@H](C)O)CC2)ccc1Nc1ncc2ccc(-c3ccccc3N(C)S(C)(=O)=O)n2n1
121 to 124 | C=CCC(NC(=O)c1ccc(OC)cc1)C(=O)O (centres undefined)
146 to 154 | CC(C)N(CCCc1ccccc1)[C@H]1CC[C@H](c2ccc(O)cc2)CC1
139 to 144 | CNc1ccc(F)c2c1C(=O)c1ccccc1-2
238 to 240 | CNc1c(-c2cc(Cl)ccc2O)c2cc(C(F)(F)F)ccc2[nH]c1=O
243 to 245 | CN(Cc1cccc2c1C(=O)N(C1CCC(=O)NC1=O)C2=O)C(=O)C1CC1 (centres undefined)
129 to 130 | Cc1cccc(-n2cc(CC(=O)O)c(-c3ccc(Cl)cc3)n2)c1
101 to 102 | COc1cc2c(cc1OC)C(c1ccccc1)N(C(=O)NCCN1CCCCC1)CC2 (centres undefined)
> 252 | Oc1cccc2c(Cl)ncnc12
140 to 141 | CNC(=O)N1CC(Oc2cccc(Cl)c2)C1
127 to 131 | OC1CCCCC1n1ccnc1 (centres undefined)
81 to 83 | Cc1cc(Oc2cccc(C(F)(F)F)c2)nn1C(=O)Nc1cc(OC2CCCC2)c(Cl)cc1F
187 to 190 | N=C(Nc1ccc(Cl)cc1)NC1CCCCC1
97 to 100 | OC(c1ccccc1)(c1cccc(C(F)(F)F)c1)N1CCCCC1 (centres undefined)
91 to 92 | Clc1ccc(Cn2cc(C3(Cn4ccnc4)CCCC3)c3ccccc32)cc1
203 to 204 | NC(=O)CNC(=O)c1cccc(-c2ccc3c(c2)N(c2cccc(Cl)c2Cl)CC3)c1
117 to 120 | O=C(NCc1ccc(Cl)cc1)c1noc2ccc(C#CCO)cc2c1=O
157 to 158 | CC(=O)N1CCC(CCC(=O)c2ccc3c(c2)CCN3c2ccncc2)CC1
100 to 102 | COc1ccccc1NC(=O)C1CCc2nc[nH]c2C1 (centres undefined)
161 to 162 | O=C(C=Cc1ccco1)c1cnc2sc3c(n12)CCCCC3
119 to 121 | CCN1C(=O)C(C(=O)Nc2cccc(C(=O)Nc3ccc(Cl)cc3)c2)c2cc(C(C)=O)ccc21 (centres undefined)
207 to 208 | NC(=O)c1c(Cl)c(-c2ccccc2)n2c1CN(S(=O)(=O)Nc1ccccc1)CC2
69 to 71 | O=C(O)[C@H](Cc1ccccc1)NC(=O)[C@@H]1CCCN1S(=O)(=O)c1ccc(Cl)cc1
168 to 170 | COc1ccc(C(=O)c2ccc(-c3ccc(Cl)cc3)nc2)cc1OC
70 to 72 | O=C(OCC1OCCS1=O)c1ccccc1 (centres undefined)
178 to 181 | CN(C)c1ccc(NC(=O)N(CC(C)(C)C)C[C@H]2CC[C@H](CN(CC(C)(C)C)C(=O)Nc3ccc(N(C)C)cc3)CC2)cc1
166 to 168 | CC1(C)CC(NC(=O)c2ccc(Cl)c([N+](=O)[O-])c2)CC(C)(C)N1
202 to 204 | Cc1cc(Cl)ccc1NC(=O)c1cccc([N+](=O)[O-])c1C(=O)NC(C)C

Second part, the compound before the results:

Structure (SMILES) | melting point [°C]
COC(=O)c1[nH]c(C)c(C)c1OCCCl | 122 to 123
O=C(OCC1CC1)c1ncn2c1[C@@H]1CCN1C(=O)c1c(I)cccc1-2 | 190 to 191
COc1ccc(Cn2c(=O)n([C@H]3CC[C@H](O)CC3)c3ncc(C(F)(F)F)cc32)cc1OC | 128 to 130
COc1ccc(C2c3cccc(O)c3C(=O)c3c(O)cccc32)c(OC)c1 | 152
COc1cc(OC)nc(NC(=O)NS(=O)(=O)c2c(Cl)cccc2Cn2cncn2)n1 | 220 to 221
COc1cccc(CS(=O)c2nc3cnccc3[nH]2)c1 (centres undefined) | 176 to 179
COc1ccc(C(NC(=O)c2ccc(F)cc2)c2cccc(Nc3c(OC)c(=O)c3=O)c2)cc1 (centres undefined) | 115 to 116
CC1(C)CC(c2ccccn2)c2cc(C(N)=O)ccc2O1 (centres undefined) | 96 to 98
Nc1c(Cl)cc(C2=NNC(=O)Cc3cc4c(cc32)OCO4)cc1Cl | 149 to 151
O=C(NN1CCOCC1)OCCCCCCOC(=O)NN1CCOCC1 | 197 to 199
COc1ccc(C(O)CNC(C)CCc2ccccc2)cc1C(N)=O (centres undefined) | 110 to 148
N#Cc1ccc(C(=O)OCc2ccc[nH]c2=O)cc1 | 200 to 203
COc1ccc2cc(-c3cccc(C=O)c3)cc(CCNC(C)=O)c2c1 | 123 to 125
O=C1CCC(CCO)N1 (centres undefined) | 52 to 52.5
NCCCN1CCC(c2c[nH]c3cc(F)ccc23)CC1 | 102
CS(=O)(=O)c1ccc(C(=O)O)c([N+](=O)[O-])c1 | 204 to 206
CC(C)(C)C1CCc2nnc(Cl)cc2C1 (centres undefined) | 96 to 97
Nc1cccc(CNC(=O)c2[nH]c3ccc(Cl)cc3c2S(=O)(=O)c2ccccc2)c1 | 247 to 249
Cc1c(OCc2ccc(CC(C)C)cc2)ccc(C(=O)Nc2ccccc2OCCCC(=O)O)c1C | 143
CN(C)c1ccc(-c2nc(N(C)C)nnc2-c2ccc(F)cc2)cc1 | 157 to 160
COc1ccccc1CN=C(Cc1ccccc1)N1CC2C(=O)CCC(c3ccccc3)(c3ccccc3)C2C1 (centres undefined) | 146
Cc1cccc(C(=O)O)c1N(C)S(=O)(=O)c1ccc(OCCCNC(=O)c2cc3ccccc3[nH]2)cc1 | 199
CNC(=O)c1ccc(C)c(-n2c(C)cc(OCc3ccc(F)cc3CNC(=O)Nc3cc(C(C)(C)C)nn3-c3ccc(O)c(Cl)c3)c(Cl)c2=O)c1 | 177 to 180

Structure (SMILES) | melting point [°C]
CS(=O)(=O)N1CCC[C@@H]1[C@H](CS(=O)(=O)c1ccc(Oc2ccc(OC(F)(F)F)cc2)cc1)N(O)C=O | 89.6 to 93
CCCCNc1cc(C(=O)O)cc(S(N)(=O)=O)c1Oc1cccc(NC(C)=O)c1 | 235 to 240
COc1ccc(C=Cc2nnc(C(Br)(Br)Br)o2)cc1 | 160 to 161
O=C1COCC2=C1C(c1ccc(F)c(Br)c1)C1=C(COC1=O)N2 (centres undefined) | 166 to 168
CCCCCCCCCCCCCCCCC1CC(Cn2cncn2)(c2ccc(Cl)cc2)N(C)O1 (centres undefined) | 100 to 102
CCNC(=O)n1nc(Oc2ccc([N+](=O)[O-])cc2)cc1C | 105 to 107
CCCCCC(C)C(C)c1cc(O)cc(OC(NC(C)=O)c2ccccc2)c1 (centres undefined) | 196 to 199
Cc1cc(C(=O)c2ccccc2)ccc1NC(=O)C(C)(O)C(F)(F)F (centres undefined) | 123 to 124
CC(C)(C)OC(=O)COc1cc(NC(=O)OC(C)(C)C)c([N+](=O)[O-])cc1-c1ccc(F)cc1 | 92 to 93
O=c1ccc2cc([N+](=O)[O-])cc(-c3cccc4ccccc34)c2[nH]1 | 234 to 235
O=[N+]([O-])c1cnccc1Oc1ccc2[nH]ccc2c1 | 182 to 184
O=C(O)c1ccccc1-c1cc(-c2ccccc2)on1 | 144 to 146
O=c1cc(-c2ccncn2)nc2n1Cc1ccccc1N2 | 290 to 292
CCc1c(O)c(C(C)=O)cc2c1OC(C)(C)CC2C (centres undefined) | 104 to 106
O=[N+]([O-])c1cc(O)c(Br)cc1F | 124 to 126
CC(C)CCCOc1c(-c2ccc(S(C)(=O)=O)cc2)cnn(-c2ccc(F)c(F)c2)c1=O | 98 to 99
COC(=O)c1ccc(-c2noc(C)n2)s1 | 134 to 136
O=c1oc(-c2ccc(-c3nc4ccccc4c(=O)o3)cc2)nc2ccccc12 | > 300
Cn1nnc2cc3c(cc2c1=O)OC1CCCN1C3=O (centres undefined) | 249 to 251
COc1cc2c3c(cccc3c1)C(=O)c1ccccc1-2 | 168 to 169
CCn1ncc(CC(=O)O)c1OCCCc1cn(-c2ccc(C(F)(F)F)cn2)nc1C(C)C | 120 to 121
COc1ccccc1C1(O)C(=O)Nc2ccc(C)c(Cl)c21 (centres undefined) | 262 to 263
Nc1nc2c(s1)CCN(CC=Cc1cccc(OCc3ccccn3)c1)CC2 | 35 to 40

Structure (SMILES) | melting point [°C]
O=C(c1cc(C(F)(F)F)cc(C(F)(F)F)c1)N1CCNCCC1c1ccccc1 (centres undefined) | 151 to 153
CCCC1(CCC)c2cc(Br)ccc2-c2cc(OC)c(Br)cc21 | 127 to 132
O=c1ccn(CCO)c(Cc2cccc(F)c2)c1O | 235 to 242
CC(C)(C)OC(=O)NC1Cc2ccccc2C(F)C1O (centres undefined) | 98 to 99
N#Cc1ccc2[nH]cc(CCNC(=O)OCc3ccccc3)c2c1 | 128 to 129
CC12CCC3C(CCC4CC(=O)CCC43C)C1CC=C2c1cccnc1 (centres undefined) | 190 to 192
COc1ccc(Br)c2c1C1C(=O)NC(=O)C1CC2 (centres undefined) | 191 to 193
CCCc1cc(O)nc(-c2cccc(Oc3ccccc3Cl)n2)n1 | 95.1
O=C(O)c1cn(C2CC2)c2c(F)c(N3CC4CC3CN4)c(F)cc2c1=O (centres undefined) | 288 to 290
O=C(Cc1ccncc1)NC(Cc1ccc(Cl)c(Cl)c1)C(=O)CCc1cc(C(F)(F)F)cc(C(F)(F)F)c1 (centres undefined) | 142 to 144
CN(C(=O)COc1cc(-c2ccccc2)nc2ccccc12)c1ccccc1 | 150
CC(NC(=O)CNC(=O)c1ccccc1)C(C)(C)C (centres undefined) | 124 to 126
Cc1ccc2c(c1)C(C(Cl)(Cl)Cl)OC(C(Cl)(Cl)Cl)O2 (centres undefined) | 134 to 135
NC(=O)c1cnn2c1NCC=C2c1cccc(F)c1 | 122 to 125
O=[N+]([O-])c1ccc(CO)c([N+](=O)[O-])c1 | 105 to 110
COc1ccc(N2CCN(c3c(C)c(C)c4c(c3C)C(O)(c3ccsc3)C(C)(C)O4)CC2)cc1 (centres undefined) | 131 to 133
CCOC(=O)C(=O)CC(=O)/C=C/c1ccc(Cl)c(OC)c1F | 67.5 to 69
CCOC(=O)C(=CNC1CC1)C(=O)c1c(N)c(F)c(F)c(OC(F)F)c1F | 103 to 104
COc1nc(Cc2ccccc2NS(=O)(=O)C(F)(F)F)nc(OC)n1 | 101 to 108
CCc1cc(Oc2ccc(S(C)(=O)=O)nc2)cc2cc(C3=NCC(CC(=O)O)S3)[nH]c12 (centres undefined) | 230 to 232
CCCCC1NC(C(=O)O)Cc2c1[nH]c1ccccc21 (centres undefined) | 204 to 205
COc1ccc(-c2cc(=O)c3c(O)cc(OC)cc3o2)cc1 | 174 to 175
CCOC(=O)CC(=O)Nc1c(F)cccc1[N+](=O)[O-] | 99 to 102
